The values below come from paper PMC10403574, “Discovery of a pyrrole-pyridinimidazole derivative as novel SIRT6 inhibitor for sensitizing pancreatic cancer to gemcitabine” (Cell Death & Disease, 2023).

Data set [1] deals with SIRT6 mutants (E140A/R195A, T184A/S191A/P193A/E283A, E22A and D63A). As to the kind of experiment: FDL assay on other SIRT6 mutants. Type of data set: biochemical, human. As to conditions: three mutants. The method, then: Fluor-De-Lys (FDL) assays were used for the examination of the deacetylation activities of sirtuins as described previously. For the detection of SIRT6 activity, the 50-μL reaction mixture contained 5 μM SIRT6, 2.5 mM NAD^+ (β-Nicotinamide adenine dinucleotide hydrate, Sigma, N1636), 75 μM RHKK-Ac-AMC (GL Biochem, Shanghai), compounds/DMSO, and assay buffer. The reactions were incubated at 37 °C for 2 h, added 50 μL stop solution (40 mM nicotinamide, 6 mg/mL trypsin) at 25 °C for 30 min. Fluorescence intensity was measured at an excitation wavelength of 360 nm and an emission wavelength of 460 nm. IC50 values were calculated in GraphPad Prism version 8.00.
To explore the interaction mechanism, we performed the molecular docking experiment between SIRT6 (PDB ID: 6QCJ) and 8a. […] 8a mainly formed hydrogen bond with the backbone amino group of D187 and the ribose hydroxyl group of the coenzyme NAD^+, and stabilized the whole system by hydrophobic interactions with key amino acids such as I8, V70, W71, F82 and F86 (Fig. 2g). To verify this binding model, the mutant (V70A and F86A) of SIRT6 was constructed by site mutation. […] Moreover, there were also some other potential binding pockets predicted by molecular docking (data not shown). Based on the prediction, we constructed other two SIRT6 mutants (E140A/R195A and T184A/S191A/P193A/E283A). […]

The subject of a further data set is NIT-1 cells. Nature of the data set: Cell glucose uptake assay, NIT-1. Type of data set: cell-based. The note with it: NIT-1, 8a (3.125, 6.25, 12.5 μM) + insulin (100 nM) vs insulin only, 30 min. Here is the method: The NIT-1 and β-TC-6 cells were added to the wells of 12-well plates and incubated overnight. Then the culture medium without FBS was incubated for 6 h, and different concentrations of 8a (3.125, 6.25, 12.5 μM), insulin (100 nM) or their combination were added for 30 min. Glucose uptake was determined using a Glucose Uptake Assay Kit (Jiancheng, Nanjing).

In another data set the target is HDAC1 (Homo sapiens, UniProt Q13547). As to the kind of experiment: Deacetylation activity selectivity, HDAC1. Type of data set: biochemical. From the text: Based on the above results, 8a was further investigated in this study. […] To further evaluate the selectivity of 8a for SIRT6, we examined the effect of 8a on the deacetylation activity of other HDAC family members, including HDAC1-HDAC11, SIRT1-SIRT3 and SIRT5. […] Furthermore, to confirm binding of 8a to SIRT6 in cells, we carried out the cellular thermal shift assay (CETSA). The CETSA approach builds on the thermal shift assay concept where ligand binding to its target protein enhances the target protein stability. We observed that the thermal stability of SIRT6 increased after 8a treatment (Figs. 2c, d).

A further data set concerns the target SIRT6 (Homo sapiens, UniProt Q8N6T7). Nature of the data set: Biolayer interferometry (BLI) binding. As to conditions: Octet RED, Ni-NTA biosensors, 25 °C. Also on record: The human full-length SIRT6 gene was inserted into the prokaryotic expression vector (pET-28a (+)); inferred from the pET-28a(+) vector, Ni-NTA purification and Ni-NTA biosensor loading); made in house; host or cells: Escherichia coli BL21 (DE3). The method, then: Binding assays were performed using Ni-NTA biosensors on the Octet® Red96 system (ForteBio, Menlo Park, CA) in 96-well microplates and measuring changes wavelength shift (in nm) over time (s). All steps were carried out at 25 °C with the plate shaking speed of 1000 rpm. The total working volume was 200 μL in 96-well microplate (Greiner Bio-one, Germany). The SIRT6 protein and compounds were diluted with phosphate-buffered saline (PBS, pH 7.4). Ni-NTA biosensors were prewetted for at least 10 min in PBS prior to the assay. Afterwards, the Ni-NTA biosensors were immobilized for 180 s with 200 μL culture containing 20 μg/mL SIRT6. After loading, sensors were washed in PBS buffer for another 120 s and transferred to wells containing different concentrations of compound 8a (0, 12.5, 25, 50, 100 μM) for binding. Finally, the dissociation step was carried out in kinetic buffer for 180 s. The assay data were processed and calculated using the ForteBio Octet RED analysis software.
In general terms: BLI is a label-free optical method that tracks binding on a fibre tip over time.

The structures appear in SMILES notation. Where only a bound is given, the exact number is not on record here.

Sequence of SIRT6 (Q8N6T7 whole entry): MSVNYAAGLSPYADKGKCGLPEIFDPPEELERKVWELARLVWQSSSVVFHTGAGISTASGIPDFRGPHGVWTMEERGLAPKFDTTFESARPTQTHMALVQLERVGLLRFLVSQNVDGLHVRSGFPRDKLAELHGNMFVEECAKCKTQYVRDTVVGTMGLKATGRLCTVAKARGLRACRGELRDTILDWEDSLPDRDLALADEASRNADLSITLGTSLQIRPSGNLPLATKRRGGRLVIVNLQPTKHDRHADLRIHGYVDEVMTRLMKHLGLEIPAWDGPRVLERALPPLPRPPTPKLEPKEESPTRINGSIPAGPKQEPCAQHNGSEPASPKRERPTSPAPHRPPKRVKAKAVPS
Sequence of HDAC1 (Q13547 whole entry, species assumed): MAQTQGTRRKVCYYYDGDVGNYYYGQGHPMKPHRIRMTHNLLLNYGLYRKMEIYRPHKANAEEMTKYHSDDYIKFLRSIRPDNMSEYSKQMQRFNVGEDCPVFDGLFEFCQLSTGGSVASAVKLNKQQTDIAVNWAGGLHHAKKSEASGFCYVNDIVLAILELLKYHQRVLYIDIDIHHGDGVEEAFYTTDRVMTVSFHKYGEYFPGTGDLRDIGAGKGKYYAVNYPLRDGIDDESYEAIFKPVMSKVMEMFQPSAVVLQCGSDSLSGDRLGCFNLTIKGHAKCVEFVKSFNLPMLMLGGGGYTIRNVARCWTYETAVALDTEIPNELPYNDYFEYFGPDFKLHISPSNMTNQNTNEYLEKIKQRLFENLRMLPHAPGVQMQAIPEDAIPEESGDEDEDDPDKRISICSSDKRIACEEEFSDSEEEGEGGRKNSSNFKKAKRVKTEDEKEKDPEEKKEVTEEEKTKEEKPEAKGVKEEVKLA

On to `Br.CN(C)C(SCCCCCCn1cnc2c(-c3cc(Br)c(Br)[nH]3)nccc21)=[N+](C)C.[Cl-]` [Compound 8a], for which the “effect of mutants on the inhibitory activity of 8a” value in data set [1] is recorded as “did not significantly affect”. Besides, the glucose uptake result in the data set on NIT-1 cells is on record as “no significant effect”. Further, the IC50 (in general, the concentration that gives 50% inhibition) against HDAC1 is more than 200 µM. The affinity at SIRT6, expressed as Kd, was 16 ± 0.313 µM.
